In patent US10227357B2, “Compounds and methods for kinase modulation, and indications therefor” (Plexxikon Inc., priority 2012, dated 2019):

Columns and labels:
c-kit mutant D816V = biological target: T1, c-kit mutant D816V (Homo sapiens, UniProt P10721, D816V/DEL694-753); assay: c-Kit mutant D816V biochemical assay, AlphaScreen; conditions: c-kit D816V biochemical inhibitory activity; read-out: Biochemical activity (IC50 μM) Kit D816V
T1 construct: residues 551-934, kinase insertion domain residues 694-753 deleted; 6x-histidine (N); made in house; host or cells: E. coli Arctic Express (DE3) RIL (Stratagene)
T1 sequence (P10721 with tags, fused parts or gaps DEL694-753/D816V): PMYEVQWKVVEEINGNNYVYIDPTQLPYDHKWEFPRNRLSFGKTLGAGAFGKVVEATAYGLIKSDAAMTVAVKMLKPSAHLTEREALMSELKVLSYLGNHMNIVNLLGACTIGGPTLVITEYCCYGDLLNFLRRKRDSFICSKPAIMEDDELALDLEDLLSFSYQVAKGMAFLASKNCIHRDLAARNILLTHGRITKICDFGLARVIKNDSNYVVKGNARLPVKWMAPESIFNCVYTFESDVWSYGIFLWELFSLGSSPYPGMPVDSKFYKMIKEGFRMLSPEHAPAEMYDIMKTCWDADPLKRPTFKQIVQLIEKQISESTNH
Procedure, shortened: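 Eight-point, threefold compound series incubated 30 min at room temperature with E. coli-produced D816V kinase, 10 μM ATP, Mg2+/Mn2+ HEPES buffer pH 7.2 and 5% DMSO. After EDTA stop, streptavidin and anti-phosphotyrosine (PY20) AlphaScreen beads gave the read-out, and IC50 was fitted from the concentration–signal curve.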

c-kit kinase = biological target: T2, c-kit kinase (Homo sapiens, UniProt P10721); assay: c-Kit biochemical assay, AlphaScreen, 10 μM ATP; conditions: c-kit biochemical inhibitory activity; read-out: Biochemical activity (IC50 μM) Kit
T2 construct: The c-kit (or kinase domain thereof) is an active kinase in AlphaScreen; poly-Histidine tag (in-house protein only) (cleaved yes); host or cells: E. coli BL21(DE3)RIL, co-expressed with PTP1B
T2 sequence (P10721 26-976): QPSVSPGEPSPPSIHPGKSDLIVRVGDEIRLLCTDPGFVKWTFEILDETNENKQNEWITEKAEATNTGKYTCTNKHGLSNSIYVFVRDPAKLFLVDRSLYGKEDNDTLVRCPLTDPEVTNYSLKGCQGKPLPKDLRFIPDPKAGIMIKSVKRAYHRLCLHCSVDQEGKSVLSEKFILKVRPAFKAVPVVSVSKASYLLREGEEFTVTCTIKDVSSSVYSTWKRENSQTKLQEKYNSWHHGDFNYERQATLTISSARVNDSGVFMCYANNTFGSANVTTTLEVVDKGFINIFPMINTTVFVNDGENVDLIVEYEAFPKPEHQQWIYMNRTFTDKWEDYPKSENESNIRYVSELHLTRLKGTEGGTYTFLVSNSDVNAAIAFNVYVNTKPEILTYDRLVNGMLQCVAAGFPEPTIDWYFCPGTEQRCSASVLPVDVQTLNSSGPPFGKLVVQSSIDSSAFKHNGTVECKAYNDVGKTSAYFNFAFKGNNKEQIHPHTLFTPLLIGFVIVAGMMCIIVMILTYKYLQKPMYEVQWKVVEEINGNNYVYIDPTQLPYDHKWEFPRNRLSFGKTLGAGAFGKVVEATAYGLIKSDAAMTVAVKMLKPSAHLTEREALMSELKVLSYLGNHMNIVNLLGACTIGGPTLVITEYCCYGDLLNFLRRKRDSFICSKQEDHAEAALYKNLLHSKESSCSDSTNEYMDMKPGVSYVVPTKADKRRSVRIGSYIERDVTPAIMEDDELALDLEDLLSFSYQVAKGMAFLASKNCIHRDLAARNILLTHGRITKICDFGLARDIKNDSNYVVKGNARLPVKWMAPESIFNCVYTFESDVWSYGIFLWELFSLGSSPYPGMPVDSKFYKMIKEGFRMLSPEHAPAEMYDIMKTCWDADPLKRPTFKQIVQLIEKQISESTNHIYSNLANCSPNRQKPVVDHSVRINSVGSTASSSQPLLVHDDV
Procedure, shortened: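 His-tagged c-Kit expressed in E. coli with co-expressed PTP1B (dephosphorylated), tag removed; 0.1 ng per reaction with biotinylated-peptide substrate in 50 mM HEPES pH 7.2, 5 mM MgCl2, 5 mM MnCl2, 5% DMSO, 10 μM ATP, 1 h at room temperature. Phosphorylation detected by AlphaScreen (streptavidin donor, PY20 acceptor beads); IC50 from 8-point 1:3 dilution series.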

| Structure (SMILES) | IC50 (c-kit mutant D816V) | IC50 (c-kit kinase) |
| --- | --- | --- |
| O=C(NCc1ccccc1Cl)N1CCN(c2ncnc3[nH]c(-c4ccc(F)cc4)cc23)CC1 [P-0154, N-[(2-chlorophenyl)methyl]-4-[6-(4-fluorophenyl)-7H-pyrrolo[2,3-d]pyrimidin-4-yl]piperazine-1-carboxamide] | 1 to 10 µM | 10 to 200 µM |
| C[C@H](NC(=O)N1CCN(c2ncnc3[nH]c(-c4ccc(F)cc4)cc23)CC1)c1cccc2ccccc12 [P-0155, 4-[6-(4-fluorophenyl)-7H-pyrrolo[2,3-d]pyrimidin-4-yl]-N-[(1S)-1-(1-naphthyl)ethyl]piperazine-1-carboxamide] | 0.0001 to 1 µM | 1 to 10 µM |
| COc1ccc(CNC(=O)N2CCN(c3ncnc4[nH]c(-c5ccc(F)cc5)cc34)CC2)cc1 [P-0157, 4-[6-(4-fluorophenyl)-7H-pyrrolo[2,3-d]pyrimidin-4-yl]-N-[(4-methoxyphenyl)methyl]piperazine-1-carboxamide] | 10 to 200 µM | 10 to 200 µM |
| O=C(Nc1ccc(F)c(Cl)c1)N1CCN(c2ncnc3[nH]ccc23)CC1 [P-0165, N-(3-chloro-4-fluoro-phenyl)-4-(7H-pyrrolo[2,3-d]pyrimidin-4-yl)piperazine-1-carboxamide] | 10 to 200 µM | 1 to 10 µM |
| O=C(Nc1cccc(C(F)(F)F)c1)N1CCN(c2ncnc3[nH]ccc23)CC1 [P-0167, 4-(7H-pyrrolo[2,3-d]pyrimidin-4-yl)-N-[3-(trifluoromethyl)phenyl]piperazine-1-carboxamide] | 10 to 200 µM | 10 to 200 µM |
| O=C(Nc1cccc(Cl)c1)N1CCN(c2ncnc3[nH]ccc23)CC1 [P-0168, N-(3-chlorophenyl)-4-(7H-pyrrolo[2,3-d]pyrimidin-4-yl)piperazine-1-carboxamide] | 10 to 200 µM | 10 to 200 µM |
| COc1ccc(CCNC(=O)N2CCN(c3ncnc4[nH]ccc34)CC2)cc1 [P-0169, N-[2-(4-methoxyphenyl)ethyl]-4-(7H-pyrrolo[2,3-d]pyrimidin-4-yl)piperazine-1-carboxamide] | 10 to 200 µM | 10 to 200 µM |
| O=C(NCc1ccc(Cl)cc1)N1CCN(c2ncnc3[nH]ccc23)CC1 [P-0170, N-[(4-chlorophenyl)methyl]-4-(7H-pyrrolo[2,3-d]pyrimidin-4-yl)piperazine-1-carboxamide] | 10 to 200 µM | 1 to 10 µM |
| O=C(Nc1ccc(Cl)cc1)N1CCN(c2ncnc3[nH]ccc23)CC1 [P-0171, N-(4-chlorophenyl)-4-(7H-pyrrolo[2,3-d]pyrimidin-4-yl)piperazine-1-carboxamide] | 10 to 200 µM | 10 to 200 µM |
| O=C(NC1CCCC1)N1CCN(c2ncnc3[nH]ccc23)CC1 [P-0177, N-cyclopentyl-4-(7H-pyrrolo[2,3-d]pyrimidin-4-yl)piperazine-1-carboxamide] | 0.0001 to 1 µM | 10 to 200 µM |
| CCOc1ccc(NC(=O)N2CCN(c3ncnc4[nH]c(C)cc34)CC2)cc1 [P-0181, N-(4-ethoxyphenyl)-4-(6-methyl-7H-pyrrolo[2,3-d]pyrimidin-4-yl)piperazine-1-carboxamide] | 10 to 200 µM | 10 to 200 µM |
| O=C(NCc1ccc(F)cc1)N1CCN(c2ncnc3[nH]ccc23)CC1 [P-0182, N-[(4-fluorophenyl)methyl]-4-(7H-pyrrolo[2,3-d]pyrimidin-4-yl)piperazine-1-carboxamide] | 10 to 200 µM | 10 to 200 µM |
| O=C(Nc1ccc(F)cc1)N1CCN(c2ncnc3[nH]ccc23)CC1 [P-0183, N-(4-fluorophenyl)-4-(7H-pyrrolo[2,3-d]pyrimidin-4-yl)piperazine-1-carboxamide] | 10 to 200 µM | 1 to 10 µM |
| C[C@H](NC(=O)N1CCN(c2ncnc3[nH]c(-c4ccc(Cl)cc4)cc23)CC1)c1ccc(Cl)cc1 [P-0188, N-[(1S)-1-(4-chlorophenyl)ethyl]-4-[6-(4-chlorophenyl)-7H-pyrrolo[2,3-d]pyrimidin-4-yl]piperazine-1-carboxamide] | 0.0001 to 1 µM | 1 to 10 µM |
| O=C(NCc1ccc(Cl)cc1)N1CCN(c2ncnc3[nH]c(-c4ccc(Cl)cc4)cc23)CC1 [P-0212, N-[(4-chlorophenyl)methyl]-4-[6-(4-chlorophenyl)-7H-pyrrolo[2,3-d]pyrimidin-4-yl]piperazine-1-carboxamide] | 0.0001 to 1 µM | 1 to 10 µM |
| O=C(NCc1ccc(F)cc1)N1CCN(c2ncnc3[nH]c(-c4ccc(Cl)cc4)cc23)CC1 [P-0213, 4-[6-(4-chlorophenyl)-7H-pyrrolo[2,3-d]pyrimidin-4-yl]-N-[(4-fluorophenyl)methyl]piperazine-1-carboxamide] | 10 to 200 µM | 10 to 200 µM |
| CCOc1ccc(NC(=O)N2CCN(c3ncnc4[nH]c(-c5ccc(Cl)cc5)cc34)CC2)cc1 [P-0214, 4-[6-(4-chlorophenyl)-7H-pyrrolo[2,3-d]pyrimidin-4-yl]-N-(4-ethoxyphenyl)piperazine-1-carboxamide] | 0.0001 to 1 µM | 0.0001 to 1 µM |

| Structure (SMILES) | IC50 (c-kit mutant D816V) | IC50 (c-kit kinase) |
| --- | --- | --- |
| O=C(NCc1ccc(Cl)cc1)N1CCN(c2ncnc3[nH]c(-c4ccccc4)cc23)CC1 [P-0215, N-[(4-chlorophenyl)methyl]-4-(6-phenyl-7H-pyrrolo[2,3-d]pyrimidin-4-yl)piperazine-1-carboxamide] | 10 to 200 µM | 10 to 200 µM |
| COc1ccc(S(=O)(=O)N2CCN(c3ncnc4[nH]ccc34)CC2)cc1 [P-0217, 4-[4-(4-methoxyphenyl)sulfonylpiperazin-1-yl]-7H-pyrrolo[2,3-d]pyrimidine] | 10 to 200 µM | 1 to 10 µM |
| CCCNC(=O)N1CCN(c2ncnc3[nH]c(-c4cccnc4)cc23)CC1 [P-0218, N-propyl-4-[6-(3-pyridyl)-7H-pyrrolo[2,3-d]pyrimidin-4-yl]piperazine-1-carboxamide] | 1 to 10 µM | 10 to 200 µM |
| O=C(Nc1ccccc1Cl)N1CCN(c2ncnc3[nH]c(-c4cccnc4)cc23)CC1 [P-0219, N-(2-chlorophenyl)-4-[6-(3-pyridyl)-7H-pyrrolo[2,3-d]pyrimidin-4-yl]piperazine-1-carboxamide] | 1 to 10 µM | 10 to 200 µM |
| O=C(Nc1ccccc1Cl)N1CCN(c2ncnc3[nH]c(-c4cccnc4)cc23)CC1 [P-0220, N-(2-chlorophenyl)-4-[6-(3-pyridyl)-7H-pyrrolo[2,3-d]pyrimidin-4-yl]piperazine-1-carboxamide] | 0.0001 to 1 µM | 0.0001 to 1 µM |
| CCOc1cccc(NC(=O)N2CCN(c3ncnc4[nH]c(-c5cccnc5)cc34)CC2)c1 [P-0221, N-(3-ethoxyphenyl)-4-[6-(3-pyridyl)-7H-pyrrolo[2,3-d]pyrimidin-4-yl]piperazine-1-carboxamide] | 0.0001 to 1 µM | 1 to 10 µM |
| O=C(NCc1ccc(F)cc1)N1CCN(c2ncnc3[nH]c(-c4cccnc4)cc23)CC1 [P-0222, N-[(4-fluorophenyl)methyl]-4-[6-(3-pyridyl)-7H-pyrrolo[2,3-d]pyrimidin-4-yl]piperazine-1-carboxamide] | 1 to 10 µM | 1 to 10 µM |
| O=C(Nc1cccc(C(F)(F)F)c1)N1CCN(c2ncnc3[nH]c(-c4cccnc4)cc23)CC1 [P-0223, 4-[6-(3-pyridyl)-7H-pyrrolo[2,3-d]pyrimidin-4-yl]-N-[3-(trifluoromethyl)phenyl]piperazine-1-carboxamide] | 0.0001 to 1 µM | 0.0001 to 1 µM |
| O=C(Nc1ccc(OC(F)(F)F)cc1)N1CCN(c2ncnc3[nH]c(-c4cccnc4)cc23)CC1 [P-0224, 4-[6-(3-pyridyl)-7H-pyrrolo[2,3-d]pyrimidin-4-yl]-N-[4-(trifluoromethoxy)phenyl]piperazine-1-carboxamide] | 0.0001 to 1 µM | 0.0001 to 1 µM |
| CCOc1ccc(NC(=O)N2CCN(c3ncnc4[nH]c(-c5cccnc5)cc34)CC2)cc1 [P-0225, N-(4-ethoxyphenyl)-4-[6-(3-pyridyl)-7H-pyrrolo[2,3-d]pyrimidin-4-yl]piperazine-1-carboxamide] | 1 to 10 µM | 10 to 200 µM |
| O=C(NCc1ccc(F)cc1)N1CCN(c2ncnc3[nH]cc(-c4ccccc4)c23)CC1 [P-0226, N-[(4-fluorophenyl)methyl]-4-(5-phenyl-7H-pyrrolo[2,3-d]pyrimidin-4-yl)piperazine-1-carboxamide] | 10 to 200 µM | 1 to 10 µM |
| COc1cc(NC(=O)N2CCN(c3ncnc4[nH]c(-c5cccnc5)cc34)CC2)cc(OC)c1 [P-0229, N-(3,5-dimethoxyphenyl)-4-[6-(3-pyridyl)-7H-pyrrolo[2,3-d]pyrimidin-4-yl]piperazine-1-carboxamide] | 0.0001 to 1 µM | 1 to 10 µM |
| CC(C)(C)OC(=O)N1CCN(c2ncnc3[nH]c(-c4cccnc4)cc23)CC1 [P-0232, tert-butyl 4-[6-(3-pyridyl)-7H-pyrrolo[2,3-d]pyrimidin-4-yl]piperazine-1-carboxylate] | 10 to 200 µM | 10 to 200 µM |
| c1nc(N2CCNCC2)c2cc[nH]c2n1 [P-0233, 4-piperazin-1-yl-7H-pyrrolo[2,3-d]pyrimidine] | 10 to 200 µM | 10 to 200 µM |
| COc1ccc(C(=O)N2CCN(c3ncnc4[nH]ccc34)CC2)cc1 [P-0234, (4-methoxyphenyl)-[4-(7H-pyrrolo[2,3-d]pyrimidin-4-yl)piperazin-1-yl]methanone] | 10 to 200 µM | 10 to 200 µM |
| COc1ccc(NC(=O)N2CCN(c3ncnc4[nH]ccc34)CC2)cc1 [P-0235, N-(4-methoxyphenyl)-4-(7H-pyrrolo[2,3-d]pyrimidin-4-yl)piperazine-1-carboxamide] | 1 to 10 µM | 10 to 200 µM |
